# According to PMC4898059 (ACS infectious diseases, 2016):
# Where two headings read alike, the source gives them in different places.
# Experiments:
# MSSA (ATCC 25923) = test: MIC, broth, methicillin-sensitive S. aureus; conditions: for MIC MSSA: modal value of experimental triplicates; for MIC: Staphylococcus aureus, ATCC25923|MSSA, read-out: MIC MSSA
# MRSA (BAA 1762) = test: MIC, broth, methicillin-resistant S. aureus; conditions: for MIC MRSA: modal value of experimental triplicates; for MIC: Staphylococcus aureus, BAA1762|MRSA
# saMenB = saMenB (Staphylococcus aureus, UniProt Q5HH38); test: Isothermal titration calorimetry with saMenB; type: binding, S. aureus
# saMenB, sequence (Q5HH38 whole entry): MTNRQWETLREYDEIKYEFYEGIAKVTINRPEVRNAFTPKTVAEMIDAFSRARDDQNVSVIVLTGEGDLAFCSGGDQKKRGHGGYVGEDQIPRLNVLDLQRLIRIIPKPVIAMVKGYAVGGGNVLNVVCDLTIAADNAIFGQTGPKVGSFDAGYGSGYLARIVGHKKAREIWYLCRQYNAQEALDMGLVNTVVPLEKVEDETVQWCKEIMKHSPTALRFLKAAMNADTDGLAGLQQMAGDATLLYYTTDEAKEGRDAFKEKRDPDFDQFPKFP
# MRSA cells [1] = test: Menaquinone-8; type: cell-based, Staphylococcus aureus; conditions: 1/10, 1/5, 1/3 and ½ MIC
# MRSA [2] = test: Agar MIC and colony morphology on tryptic soy agar; type: cell-based, Staphylococcus aureus
# MRSA [3] = test: Systemic MRSA infection mouse model; type: in vivo, Swiss Webster mice; conditions: mice, IP infection, 100 mg/kg SC at 1, 12 and 24 hr post infection
# MRSA [4] = test: Neutropenic thigh MRSA infection mouse model; type: in vivo, Swiss Webster mice; conditions: for Reduction of bacterial load in thigh: neutropenic mice, 100 mg/kg SC at 1 and 12 hr post infection
# M. tuberculosis = conditions: ref Li, X., et al. ACS Med Chem Lett, 2011; cited from earlier work
# E. coli (ATCC 25922) = test: MIC, E. coli; conditions: for MIC: Escherichia coli
# [5] = tested on: Enterococcus faecium (ATCC 19434); test: MIC, E. faecium
# [6] = tested on: Bacillus subtilis (ATCC 6051); test: MIC, B. subtilis
# [7] = tested on: Proteus mirabilis (ATCC 35659); test: MIC, P. mirabilis; conditions: for MIC: Proteus mirabilis
# [8] = tested on: Pseudomonas aeruginosa (ATCC 27853); test: MIC, P. aeruginosa; conditions: for MIC: Pseudomonas aeruginosa
# [9] = tested on: Haemophilus influenzae (ATCC 49427); test: MIC, H. influenzae; conditions: for MIC: Haemophilus influenzae
# [10] = tested on: Klebsiella pneumoniae (ATCC 13883); test: MIC, K. pneumoniae; conditions: for MIC: Klebsiella pneumoniae
# MRSA cells [11] = test: DHNA level in treated MRSA cells by LC/UV/MS; conditions: MRSA cells treated with 8 µg/mL for 18 hr
smiles,measurement,setting,value
COC(=O)C=CC(=O)c1ccc(F)cc1 [Compound 2],MIC MSSA,MSSA (ATCC 25923),8 µg/mL
same,MIC MRSA,MRSA (BAA 1762),12 µg/mL
COC(=O)C=CC(=O)c1ccc(Br)cc1 [Compound 3],MIC MSSA,MSSA (ATCC 25923),8 µg/mL
same,MIC MRSA,MRSA (BAA 1762),16 µg/mL
COC(=O)C=CC(=O)c1ccc(Cl)cc1Cl [Compound 5],MIC MSSA,MSSA (ATCC 25923),1 µg/mL
same,MIC MRSA,MRSA (BAA 1762),2 µg/mL
"CC(C)(COP(=O)(O)OP(=O)(O)OC[C@H]1O[C@@H](n2cnc3c(N)ncnc32)[C@H](O)[C@@H]1OP(=O)(O)O)[C@@H](O)C(=O)NCCC(=O)NCCS [CoA, coenzyme A]",Kd,saMenB,25 ± 4 µM
COC(=O)C=CC(=O)c1ccc([N+](=O)[O-])cc1 [Compound 4],MIC MSSA,MSSA (ATCC 25923),4 µg/mL
same,MIC MRSA,MRSA (BAA 1762),4 µg/mL
"COC(=O)C=CC(=O)c1ccc(Cl)cc1 [Compound 1, methyl 4-(4-chlorophenyl)-4-oxobut-2-enoate]",Change in MK-8 with increasing concentration,MRSA cells [1],dose dependent decrease
same,Colony morphology,"MRSA [2]; MRSA on TSA with 4 µg/mL (½ agar MIC), 48 hr",SCV phenotype
same,Growth with MK-4 complementation,MRSA [2]; MRSA on TSA with 16 µg/mL (2x agar-MIC) and 10 µM MK-4,wild-type growth
same,Agar MIC,"MRSA [2]; MRSA on tryptic soy agar, no growth after 72 hr",8 µg/mL
same,Survival rate (days post infection),MRSA [3],4.6 days
same,Reduction of bacterial load in thigh,MRSA [4],3.1 log CFU/gram tissue
same,Dose dependence of bacterial burden in thigh,"MRSA [4]; neutropenic mice, 25, 50 and 100 mg/kg SC",dose dependent reduction
same,MIC aerobic,M. tuberculosis,0.64 µg/mL
same,MIC aerobic,"E. coli (ATCC 25922); E. coli, aerobic",no activity
same,MIC,"E. coli (ATCC 25922); ATCC25922, read-out: MIC + MK-4",> 60 µg/mL
same,MIC,"E. coli (ATCC 25922); ATCC25922, read-out: MIC aerobic",> 60 µg/mL
same,MIC,"E. coli (ATCC 25922); ATCC25922, read-out: MIC anaerobic",15.5 µg/mL
same,MIC,"E. coli (ATCC 25922); ATCC25922, read-out: MIC capnophilic",15.5 µg/mL
same,MIC,"[5]; ATCC19434, read-out: MIC + MK-4",31.5 µg/mL
same,MIC,"[5]; ATCC19434, read-out: MIC aerobic",4 µg/mL
same,MIC,"[5]; ATCC19434, read-out: MIC anaerobic",1.25 µg/mL
same,MIC,"[5]; ATCC19434, read-out: MIC capnophilic",2.5 µg/mL
same,MIC,"[6]; ATCC6051, read-out: MIC + MK-4",> 60 µg/mL
same,MIC,"[6]; ATCC6051, read-out: MIC aerobic",8 µg/mL
same,MIC,"[6]; ATCC6051, read-out: MIC anaerobic",2 µg/mL
same,MIC,"[6]; ATCC6051, read-out: MIC capnophilic",4 µg/mL
same,MIC aerobic,"[7]; P. mirabilis, aerobic",no activity
same,MIC,"[7]; ATCC35659, read-out: MIC + MK-4",31.5 µg/mL
same,MIC,"[7]; ATCC35659, read-out: MIC aerobic",> 60 µg/mL
same,MIC,"[7]; ATCC35659, read-out: MIC anaerobic",12.5 µg/mL
same,MIC,"[7]; ATCC35659, read-out: MIC capnophilic",12.5 µg/mL
same,MIC aerobic,"[8]; P. aeruginosa, aerobic",no activity
same,MIC anaerobic,"[8]; P. aeruginosa, anaerobic (GasPak)",no activity
same,MIC capnophilic,"[8]; P. aeruginosa, capnophilic (candle jar)",no activity
same,MIC,"[8]; ATCC27853, read-out: MIC aerobic",> 60 µg/mL
same,MIC,"[8]; ATCC27853, read-out: MIC anaerobic",> 60 µg/mL
same,MIC,"[8]; ATCC27853, read-out: MIC capnophilic",> 60 µg/mL
same,MIC capnophilic,"[9]; H. influenzae, capnophilic (candle jar)",0.25 µg/mL
same,MIC,"[9]; ATCC49427, read-out: MIC + MK-4",> 60 µg/mL
same,MIC,"[9]; ATCC49427, read-out: MIC capnophilic",0.25 µg/mL
same,MIC aerobic,"[10]; K. pneumoniae, aerobic",no activity
same,MIC anaerobic,"[10]; K. pneumoniae, anaerobic (GasPak)",62.5 µg/mL
same,MIC,"[10]; ATCC13883, read-out: MIC + MK-4",> 60 µg/mL
same,MIC,"[10]; ATCC13883, read-out: MIC aerobic",> 60 µg/mL
same,MIC,"[10]; ATCC13883, read-out: MIC anaerobic",62.5 µg/mL
same,MIC,"[10]; ATCC13883, read-out: MIC capnophilic",> 60 µg/mL
same,MIC,MSSA (ATCC 25923),0.35 µg/mL
same,MIC,MRSA (BAA 1762); read-out: MIC + MK-4,> 60 µg/mL
same,MIC,MRSA (BAA 1762); read-out: MIC MRSA,0.75 µg/mL
same,MIC,MRSA (BAA 1762); read-out: MIC aerobic,0.75 µg/mL
same,MIC,MRSA (BAA 1762); read-out: MIC anaerobic,0.37 µg/mL
same,MIC,MRSA (BAA 1762); read-out: MIC capnophilic,0.37 µg/mL
same,DHNA in treated cells,MRSA cells [11],could not be detected
"Cc1onc(-c2ccccc2)c1C(=O)N[C@@H]1C(=O)N2[C@@H]1SC(C)(C)[C@@H]2C(=O)O [Oxacillin, reference compound]",Survival rate (days post infection),MRSA [3],1.5 to 1.6 days
same,Reduction of bacterial load in thigh,MRSA [4],minimal effect
same,MIC,MSSA (ATCC 25923),0.1 µg/mL
same,MIC,MRSA (BAA 1762); read-out: MIC MRSA,> 128 µg/mL
"CN[C@H](CC(C)C)C(=O)N[C@H]1C(=O)N[C@@H](CC(N)=O)C(=O)N[C@H]2C(=O)N[C@H]3C(=O)N[C@H](C(=O)N[C@H](C(=O)O)c4cc(O)cc(O)c4-c4cc3ccc4O)[C@H](O)c3ccc(c(Cl)c3)Oc3cc2cc(c3O[C@@H]2O[C@H](CO)[C@@H](O)[C@H](O)[C@H]2O[C@H]2C[C@](C)(N)[C@H](O)[C@H](C)O2)Oc2ccc(cc2Cl)[C@H]1O [Vancomycin, reference compound]",Survival rate (days post infection),MRSA [3],5.8 days
same,Reduction of bacterial load in thigh,MRSA [4],4.2 log CFU/gram tissue
same,MIC,MSSA (ATCC 25923),2 µg/mL
same,MIC,MRSA (BAA 1762); read-out: MIC MRSA,4 µg/mL
O=C(O)C=CC(=O)c1ccc(Cl)cc1 [Compound 6],MIC MSSA,MSSA (ATCC 25923),> 60 µg/mL
same,MIC MRSA,MRSA (BAA 1762),> 60 µg/mL
